Results on 28 molecules are retold here after US20150164899A1, “INHIBITION OF ADAPTOR ASSOCIATED KINASE 1 FOR THE TREATMENT OF PAIN” (priority 2012, published 2015).

Like-named read-outs stand apart in the source and are kept apart here. Where only a bound is given, the exact number is not on record here.

The target in one experiment is T1, GST-Xa-hAAK1 (Homo sapiens, UniProt Q2M2I8).
T1 construct: made in house
As to the kind of experiment: Caliper assay. The format is biochemical. The conditions noted are these: aryl ethers. The method, then:
The assays were performed in U-bottom 384-well plates. The final assay volume was 30 μl prepared from 15 μl additions of enzyme and substrates (fluoresceinated peptide (5-FAM)-Aha-[…]-NH2 and ATP) and test compounds in assay buffer (10 mM Tris-HCL pH 7.4, 10 mM MgCl2, 0.01% Tween-20 and 1.0 mM DTT). The reactions were initiated by the combination of bacterially expressed, GST-Xa-hAAK1 with substrates and test compounds. The reactions were incubated at room temperature for 3 hours and terminated by adding 60 μl of 35 mM EDTA buffer to each sample. The reactions were analyzed on the Caliper LabChip 3000 (Caliper, Hopkinton, Mass.) by electrophoretic separation of the fluorescent substrate and phosphorylated product. […] The final concentration of reagents in the assays are ATP, 22 μM; (5-FAM)-Aha-[…]-NH2, 1.5 μM; GST-Xa-hAAK1, 3.5 nM; and DMSO, 1.6%. Dose response curves were generated to determine the concentration required inhibiting 50% of kinase activity (IC50). Compounds were dissolved at 10 mM in dimethylsulfoxide (DMSO) and evaluated at eleven concentrations. IC50 values were derived by non-linear regression analysis.

Experiment [1] concerns the target T2, AAK1 (full length human) in transfected HEK293F cells (Homo sapiens, UniProt Q2M2I8).
T2 construct: expressed in transfected cells; host or cells: HEK293F
As to the kind of experiment: HEK281 cell-based assay (phospho-mu2 Western blot). The conditions noted are these: read-out: CBA IC50. Background: A western blot detects proteins with antibodies after separation by electrophoresis.

The subject of experiment [2] is formalin-induced paw flinching. Put plainly: formalin paw test. The note with it: mice. The format is in vivo. The method, then:
See example 5.4.1, above. The same test was used to confirm that the administration of an AAK1 inhibitor can also affect pain response.
Mice were tested for nociception with Automatic Nociception Analyzers (purchased from the Ozaki lab at University of California, San Diego). A metal band was placed around the left hind paw of each mouse with superglue 30 minutes prior to testing. After the 30-minute acclimation period, 20 μl of 5% formalin was subcutaneously injected in the dorsal surface of the left hind paw. Mice were individually housed in cylindrical chambers for 45 minutes. Fresh 5% formalin solution was prepared by diluting formaldehyde (Formalde-fresh 20%, Fisher Scientific, Fair Lawn, N.J.) with distilled water. Investigatory compounds were administered 30 minutes prior to formalin injection.
A computer software recorded flinches per minute, total flinches for Phase I (acute phase=first 8 minutes), and total flinches for Phase II (tonic phase between 20-40 minutes) through an electromagnetic field. See Yaksh T L, Ozaki G, McCumber D, Rathbun M, Svensson C, Malkmus S, Yaksh M C. An automated flinch detecting system for use in the formalin nociceptive bioassay. J Appl Physiol., 2001; 90:2386-402.
Various compounds of the invention were tested at different doses. Gabapentin and pregabalin were used as positive controls. Results are shown below in Table 2, wherein “*” means an effect equal to or greater than 50 percent of that of gabapentin at 200 mpk, “**” means an effect equal to or greater than 100 percent of that of gabapentin at 200 mpk, “sc” means subcutaneous administration, “ip” means in intraperitoneal administration, and “po” means oral administration.

The mark [3] stands for this setting: HEK281 cell-based assay, pyrazolo[1,5-a]pyrimidine-based inhibitors.

T1 sequence (Q2M2I8 whole entry): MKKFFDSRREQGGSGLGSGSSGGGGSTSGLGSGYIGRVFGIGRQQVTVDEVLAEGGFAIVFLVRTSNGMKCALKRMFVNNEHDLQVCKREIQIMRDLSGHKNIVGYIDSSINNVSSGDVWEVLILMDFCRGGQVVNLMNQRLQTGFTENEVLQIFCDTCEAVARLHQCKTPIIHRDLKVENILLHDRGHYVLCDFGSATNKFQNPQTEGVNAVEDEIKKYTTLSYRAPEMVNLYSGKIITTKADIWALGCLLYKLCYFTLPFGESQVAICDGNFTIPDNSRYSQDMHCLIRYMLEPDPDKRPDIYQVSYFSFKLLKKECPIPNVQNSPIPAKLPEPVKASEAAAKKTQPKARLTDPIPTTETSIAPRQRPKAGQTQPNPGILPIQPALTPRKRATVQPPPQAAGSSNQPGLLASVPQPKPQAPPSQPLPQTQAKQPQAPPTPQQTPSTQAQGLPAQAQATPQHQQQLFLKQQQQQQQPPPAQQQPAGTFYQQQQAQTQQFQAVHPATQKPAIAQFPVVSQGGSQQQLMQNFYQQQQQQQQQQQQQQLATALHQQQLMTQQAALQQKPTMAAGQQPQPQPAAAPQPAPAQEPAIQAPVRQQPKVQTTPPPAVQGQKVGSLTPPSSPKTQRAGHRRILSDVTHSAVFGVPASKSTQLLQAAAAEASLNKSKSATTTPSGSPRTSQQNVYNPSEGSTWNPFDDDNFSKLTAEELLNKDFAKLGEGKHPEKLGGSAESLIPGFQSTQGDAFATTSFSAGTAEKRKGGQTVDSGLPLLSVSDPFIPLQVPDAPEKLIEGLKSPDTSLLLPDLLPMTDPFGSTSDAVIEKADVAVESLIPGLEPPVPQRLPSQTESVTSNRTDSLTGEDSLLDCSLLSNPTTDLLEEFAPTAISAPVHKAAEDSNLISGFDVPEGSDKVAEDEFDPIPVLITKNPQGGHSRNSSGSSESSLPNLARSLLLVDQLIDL
T2 sequence (Q2M2I8 1-863 isoform Q2M2I8-2): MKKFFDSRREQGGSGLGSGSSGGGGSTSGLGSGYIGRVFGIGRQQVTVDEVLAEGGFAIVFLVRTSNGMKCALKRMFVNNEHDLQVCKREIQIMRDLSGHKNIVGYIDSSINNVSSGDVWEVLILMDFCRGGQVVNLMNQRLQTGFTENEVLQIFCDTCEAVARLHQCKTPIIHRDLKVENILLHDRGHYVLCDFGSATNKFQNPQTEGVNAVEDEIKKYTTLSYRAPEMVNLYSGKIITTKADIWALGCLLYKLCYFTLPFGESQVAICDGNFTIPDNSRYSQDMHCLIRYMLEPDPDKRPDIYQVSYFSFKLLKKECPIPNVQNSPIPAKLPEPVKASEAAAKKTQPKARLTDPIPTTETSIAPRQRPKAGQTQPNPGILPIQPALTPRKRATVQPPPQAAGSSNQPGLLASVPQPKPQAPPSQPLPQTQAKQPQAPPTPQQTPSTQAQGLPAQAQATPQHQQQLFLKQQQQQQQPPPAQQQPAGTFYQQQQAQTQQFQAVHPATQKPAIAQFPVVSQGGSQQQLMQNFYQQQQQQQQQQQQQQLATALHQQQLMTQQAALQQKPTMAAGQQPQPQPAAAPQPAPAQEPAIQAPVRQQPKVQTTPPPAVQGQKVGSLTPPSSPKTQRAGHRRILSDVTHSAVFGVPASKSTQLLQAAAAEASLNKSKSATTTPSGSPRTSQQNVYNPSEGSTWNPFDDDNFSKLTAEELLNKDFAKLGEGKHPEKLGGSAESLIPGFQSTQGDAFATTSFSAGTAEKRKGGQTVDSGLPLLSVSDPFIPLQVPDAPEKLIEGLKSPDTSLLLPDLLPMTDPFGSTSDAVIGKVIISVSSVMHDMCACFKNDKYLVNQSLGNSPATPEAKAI

What is called IC50 is the concentration that gives 50% inhibition. For the molecule `N[C@@H](COc1ccc2c(c1)OCc1cnccc1-2)Cc1ccccc1`, on GST-Xa-hAAK1 (numeric values), the IC50 amounted to 293 nM.

For `CC(C)C[C@@H](N)COc1ccc2c(c1)OC(C)c1cnccc1-2` (some centres unmarked), the concentration for half-maximal inhibition (IC50) is 10 to 100 nM at GST-Xa-hAAK1 (class symbols) and > 300 nM in experiment [1] (aryl ethers, numeric values).

On to `CCc1cc2c(cc1OC[C@@H](N)CC(C)C)OC(CC)c1cnccc1-2` (some centres unmarked), for which the half-maximal inhibitory concentration (IC50) on GST-Xa-hAAK1 (class symbols) was 10 to 100 nM; in experiment [1] (aryl ethers, numeric values), 18 nM.

`CCC1Oc2cc(OC[C@@H](N)CC(C)C)ccc2-c2ccncc21` (some centres unmarked): the IC50 was determined as 12 nM at GST-Xa-hAAK1 (numeric values) and 56 nM in experiment [1] (aryl ethers, numeric values).

In the case of `CC(C)C[C@H](N)COc1ccc2c(c1)OCc1cnc(N)cc1-2`, the half-maximal inhibitory concentration (IC50) was 1 to 10 nM at GST-Xa-hAAK1 (class symbols) and 1 to 10 nM in experiment [1] (aryl ethers, class symbols).

In the case of `CC(C)C[C@H](N)COc1cc2c(cc1Br)-c1ccncc1CO2`, the IC50 came out at 0.86 nM on GST-Xa-hAAK1 (numeric values) and 2.5 nM in experiment [1] (aryl ethers, numeric values).

On to `NCc1ccc(-c2cnc3ccc(NCCOC4CCCC4)nn23)cc1` [3-(4-(aminomethyl)phenyl)-N-(2-(cyclopentyloxy)ethyl)imidazo[1,2-b]pyridazin-6-amine], for which the Effect entry in experiment [2] (60 mpk sc) and in experiment [2] (100 mpk sc) was “** (an effect equal to or greater than 100% of that of gabapentin at 200 mpk)” each time.

In the case of `CC(C)(C)OCCNc1ccc2ncc(-c3ccc(CN)cc3)n2n1` [3-(4-(aminomethyl)phenyl)-N-(2-(tert-butoxy)ethyl)imidazo[1,2-b]pyridazin-6-amine], the Effect entry in experiment [2] (60 mpk sc) is given as “** (an effect equal to or greater than 100% of that of gabapentin at 200 mpk)”.

For `CC(C)(C)OCCCNc1ccc2ncc(-c3ccc(CN)cc3)n2n1` [3-(4-(aminomethyl)phenyl)-N-(3-(tert-butoxy)propyl)imidazo[1,2-b]pyridazin-6-amine], the Effect result in experiment [2] (60 mpk sc) was “** (an effect equal to or greater than 100% of that of gabapentin at 200 mpk)”.

On to `NCc1ccc(-c2cnc3ccc(NCCCc4ccccc4)nn23)cc1` [3-(4-(aminomethyl)phenyl)-N-(3-phenylpropyl)imidazo[1,2-b]pyridazin-6-amine], for which, in experiment [2] (30 mpk ip), the Effect entry was “** (an effect equal to or greater than 100% of that of gabapentin at 200 mpk)”.

As to `CC(C)C[C@@H](N)COc1ccc2c(c1)OCc1cnccc1-2` [(R)-1-(5H-chromeno[3,4-c]pyridin-8-yloxy)-4-methylpentan-2-amine], the Effect was 45% in experiment [2] (10 mpk sc, given as a number, relative to gabapentin at 200 mpk) and “* (an effect equal to or greater than 50% of that of gabapentin at 200 mpk)” in experiment [2] (30 mpk sc).

Regarding `COc1ncccc1-c1cnc2ccc(N3CC[C@H](N(C)C(=O)OC(C)C)C3)nn12` [(S)-isopropyl (1-(3-(2-methoxypyridin-3-yl)imidazo[1,2-b]pyridazin-6-yl)pyrrolidin-3-yl)(methyl)carbamate], the values for the Effect entry in experiment [2] (10 mpk po), in experiment [2] (30 mpk po) and in experiment [2] (60 mpk po) were “* (an effect equal to or greater than 50% of that of gabapentin at 200 mpk)”, “** (an effect equal to or greater than 100% of that of gabapentin at 200 mpk)” and “** (an effect equal to or greater than 100% of that of gabapentin at 200 mpk)”, respectively.

As to `COc1ccccc1-c1cnn2ccc(NC[C@@H]3CCCN3C(=O)OC(C)(C)C)nc12` [(S)-tert-butyl 2-(((3-(2-methoxyphenyl)pyrazolo[1,5-a]pyrimidin-5-yl)amino)methyl)pyrrolidine-1-carboxylate], the Effect result in experiment [2] (10 mpk sc) and in experiment [2] (60 mpk sc) was “* (an effect equal to or greater than 50% of that of gabapentin at 200 mpk)” in each case. Besides, the IC50 in experiment [1] (setting [3]) is ≤ 10 nM.

As for `CC(C)(C)OC(=O)N1CCC[C@H]1CNc1ccc2ncc(-c3ccc(CN)cc3)n2n1` [(S)-tert-butyl 2-(((3-(4-(aminomethyl)phenyl)imidazo[1,2-b]pyridazin-6-yl)amino)methyl)pyrrolidine-1-carboxylate], the Effect result in experiment [2] (60 mpk sc) is given as “** (an effect equal to or greater than 100% of that of gabapentin at 200 mpk)”.

Take `CC(C)(C)OC(=O)N1CCC[C@H]1CNc1ccn2ncc(-c3ccncc3)c2n1` [(S)-tert-butyl 2-(((3-(pyridin-4-yl)pyrazolo[1,5-a]pyrimidin-5-yl)amino)methyl)pyrrolidine-1-carboxylate]: in experiment [2] (30 mpk sc), the Effect result was “** (an effect equal to or greater than 100% of that of gabapentin at 200 mpk)”. Besides, the concentration for half-maximal inhibition (IC50) in experiment [1] (setting [3]) is ≤ 10 nM.

For the molecule `CC(C)(C)OC(=O)N1CCC[C@H]1CNc1ccc2ncc(Br)n2n1` [(S)-tert-butyl 2-(((3-bromoimidazo[1,2-b]pyridazin-6-yl)amino)methyl)pyrrolidine-1-carboxylate], the Effect entry in experiment [2] (30 mpk sc) and in experiment [2] (60 mpk sc) was “** (an effect equal to or greater than 100% of that of gabapentin at 200 mpk)” in each case.

On to `NCC1(CC(=O)O)CCCCC1` [Gabapentin, reference compound], for which the Effect result in experiment [2] (50 mpk sc) is listed as “* (an effect equal to or greater than 50% of that of gabapentin at 200 mpk)”; in experiment [2] (200 mpk sc) it was “** (an effect equal to or greater than 100% of that of gabapentin at 200 mpk)”.

Take `CCCCNc1ccc2ncc(-c3ccc(C(=O)NCCN)cc3)n2n1` [N-(2-aminoethyl)-4-(6-(butylamino)imidazo[1,2-b]pyridazin-3-yl)benzamide]: in experiment [2] (30 mpk ip), the Effect entry is reported as “** (an effect equal to or greater than 100% of that of gabapentin at 200 mpk)”.

Regarding `CC(C)C[C@H](CN)CC(=O)O` [Pregabalin, reference compound], in experiment [2] (50 mpk sc), the Effect entry is given as “* (an effect equal to or greater than 50% of that of gabapentin at 200 mpk)”.

`CC(C)C[C@@H](N)COc1ccc2c(c1)OCc1cnccc1-2` [drawing 25]: on GST-Xa-hAAK1 (class symbols), the half-maximal inhibitory concentration (IC50) was 10 to 100 nM.

As for `CC(C)C[C@H](N)COc1ccc2c(c1)OC(C)c1cnccc1-2` (some centres unmarked) [drawing 30], on GST-Xa-hAAK1 (numeric values), the concentration for half-maximal inhibition (IC50) was 4.9 nM.

For `CC(C)C[C@H](N)COc1ccc2c(c1)OC(C)c1cnccc1-2` (some centres unmarked) [drawing 31], the IC50 at GST-Xa-hAAK1 (class symbols) is 10 to 100 nM; in experiment [1] (aryl ethers, numeric values) it was 25 nM.

Consider `CC(C)C[C@H](N)COc1ccc2c(c1)OC(C1CC1)c1cnccc1-2` (some centres unmarked) [drawing 36], for which the IC50 at GST-Xa-hAAK1 (class symbols) lay within 100 to 1000 nM.

In the case of `CC(C)C[C@H](N)COc1ccc2c(c1)OC(C1CC1)c1cnccc1-2` (some centres unmarked) [drawing 37], the half-inhibitory concentration (IC50) on GST-Xa-hAAK1 (class symbols) is 1 to 10 nM; in experiment [1] (aryl ethers, numeric values), 18 nM.

Regarding `COc1ccccc1-c1cnc2ccc(N3CCN(C(=O)OC(C)C)CC3)nn12` [isopropyl 4-(3-(2-methoxyphenyl)imidazo[1,2-b]pyridazin-6-yl)piperazine-1-carboxylate], the Effect result in experiment [2] (30 mpk sc) and in experiment [2] (60 mpk sc) was “** (an effect equal to or greater than 100% of that of gabapentin at 200 mpk)” in each case.

As to `COc1ccccc1-c1cnn2ccc(N3CCN(C(=O)OC(C)C)CC3)nc12` [isopropyl 4-(3-(2-methoxyphenyl)pyrazolo[1,5-a]pyrimidin-5-yl)piperazine-1-carboxylate], the Effect result in experiment [2] (30 mpk sc) is “** (an effect equal to or greater than 100% of that of gabapentin at 200 mpk)”.

In the case of `COc1ncccc1-c1cnn2ccc(N3CCN(C(=O)OC(C)C)CC3)nc12` [isopropyl 4-(3-(2-methoxypyridin-3-yl)pyrazolo[1,5-a]pyrimidin-5-yl)piperazine-1-carboxylate], the figures for the Effect result in experiment [2] (10 mpk po) and in experiment [2] (30 mpk po) were “* (an effect equal to or greater than 50% of that of gabapentin at 200 mpk)” and “** (an effect equal to or greater than 100% of that of gabapentin at 200 mpk)”, respectively.

As to `CN(CCNc1ccc2ncc(-c3ccc(C(N)=O)cc3)n2n1)C(=O)OC(C)(C)C` [tert-butyl (2-((3-(4-carbamoylphenyl)imidazo[1,2-b]pyridazin-6-yl)amino)ethyl)(methyl)carbamate], the Effect result in experiment [2] (60 mpk sc) and in experiment [2] (100 mpk po) was “** (an effect equal to or greater than 100% of that of gabapentin at 200 mpk)” throughout.
